The assay concerns the target immobilized STAT3 (Homo sapiens, UniProt P40763). The assay is described as follows: Static adsorption equilibrium assay, immobilized STAT3. Type of assay: binding. The note with it: immobilized STAT3 85 nmol g^−1 wet gel; peptide 2-20 µM in PBS, stirred 12 h; free peptide by NanoDrop absorbance 240 nm; Langmuir isotherm; mean ± SD; read-out: equilibrium dissociation constant KD. An excerpt: Considering that the SH2 domain predominantly represents the inhibition of SHF on STAT3 dimerization and activity, we speculated that this domain may be an optional target for GBM suppression. To this end, we analyzed the mechanical interaction of SHF and STAT3. The structures of human SHF (aa265‐421) and STAT3 (aa130‐715). both of which spanned their respective SH2 domain. were simulated by Swiss‐Model server (https://swissmodel.expasy.org/). To simulate the interaction of SHF and STAT3, Discovery studio 2018 was employed to complete protein‐protein docking using ZDOCK as an initial stage. A rigid body molecular docking algorithm utilizing a fast Fourier transform (FFT) algorithm was used to further improve performance for searching in translational space. All the available structures from PDB were used to calculate the docking poses and the structures obtained were subjected to energy minimization filtration using the smart minimize algorithm (Max steps 200, RMS gradient 0.01). The highest resulting ZDock score was used as the appropriate conformational pose. […] Since these two spots are located closely to one another, the sequence spanning amino acids 388–421 was used as a peptide design master. To obtain a peptide with high internalization efficiency and a strong half‐life, we introduced a palmitic acid at the N‐terminus of the master sequence and amidated the C‐terminus. The designed peptide was named C16. A scrambled peptide containing a scrambled sequence targeting Spot1 was named SC and served as a negative control peptide. […] The static adsorption equilibrium experiment of immobilized STAT3 peptide was used to detect the binding rate of the synthesized peptide with STAT3 (Figure 7C). The concentration of immobilized STAT3 used was 85 nmol g^−1 wet gel. […] Thus, C16 acted as a powerful inhibitor of STAT3 dimerization and associated activity. Next, we determined the implication of C16 in tumor inhibition. […] A concentration of 25 uM was determined to be adequate for use in the subsequent experiments. […] Further, the impact of C16 on tumor propagation was examined in an intracranial xenograft model. U87 cells expressing luciferase were implanted into mouse brains. The mice were injected intraperitoneally (i.p.) with C16 or SC once every 2 days from the third day after cell transplantation. […] To investigate the effect of C16 on cell proliferation, EdU was injected 24 h prior to sacrifice.
Figure 7 Peptide derived from the STAT3‐binding sites of SHF is an effective GBM suppressive strategy. A) Binding model between SHF and STAT3 using ZDOCK server. […] B) IF staining determined the cell penetrability and nuclear‐localization of C16. U251 cells were incubated with C16 or SC for 2 h and performed IF staining using the indicated antibodies. Bars, 10 µm. C) The statical analysis of adsorption equilibrium assay detecting the binding of C16 and SC with recombinant STAT3. D) Pull‐down assay indicating C16 binds STAT3. GST‐STAT3 was incubated with C16 or SC for 2 h, and the pull‐down assay was performed using Anti‐His magnetic beads. E) IP assay showing the effect of C16 on STAT3 dimerization. 293T cells transfected with indicated vectors were incubated with C16 for 2 h. The relative quantification of STAT3 dimerization was listed. F) IP assay detecting the effect of C16 on the interaction of STAT3 and DNMT1. […] The relative quantification of STAT3/DNMT1 interaction was listed. […] The relative quantification of STAT3/DNMT1 interaction was listed. […]

No end group written: not given here.

As a reminder, the Kd is a measure of binding affinity in units of concentration.

immobilized STAT3, sequence (P40763 whole entry, the tested form may be a part): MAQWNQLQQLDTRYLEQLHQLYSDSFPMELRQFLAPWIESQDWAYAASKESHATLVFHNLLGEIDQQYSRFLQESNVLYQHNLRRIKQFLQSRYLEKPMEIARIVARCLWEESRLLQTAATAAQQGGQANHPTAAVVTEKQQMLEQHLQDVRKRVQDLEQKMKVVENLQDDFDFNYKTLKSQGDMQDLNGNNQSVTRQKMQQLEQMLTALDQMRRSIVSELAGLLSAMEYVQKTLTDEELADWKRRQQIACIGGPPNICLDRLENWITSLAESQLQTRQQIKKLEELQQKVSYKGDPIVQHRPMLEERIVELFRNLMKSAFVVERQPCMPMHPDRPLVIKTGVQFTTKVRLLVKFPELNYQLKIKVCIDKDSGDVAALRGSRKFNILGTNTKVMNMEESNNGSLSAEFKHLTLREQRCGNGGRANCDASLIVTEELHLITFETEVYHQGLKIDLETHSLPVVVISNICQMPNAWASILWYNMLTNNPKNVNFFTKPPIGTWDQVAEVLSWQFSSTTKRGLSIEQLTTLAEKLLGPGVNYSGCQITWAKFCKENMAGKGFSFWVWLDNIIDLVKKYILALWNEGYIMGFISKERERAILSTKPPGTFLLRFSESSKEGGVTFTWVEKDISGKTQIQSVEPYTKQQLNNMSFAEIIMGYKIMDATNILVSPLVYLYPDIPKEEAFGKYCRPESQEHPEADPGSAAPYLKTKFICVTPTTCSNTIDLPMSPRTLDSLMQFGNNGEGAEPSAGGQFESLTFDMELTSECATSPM

On to “PASSNCEIVPMYHIRKLPIKGAEHMSLLYPVAIR [SC, reference compound]”, for which the Kd came to 4.08 ± 0.63 µM.

These data come from article PMC9475553, “SHF Acts as a Novel Tumor Suppressor in Glioblastoma Multiforme by Disrupting STAT3 Dimerization” (Advanced Science, 2022).
